{"source": "patent US10577610B2", "about": "“EpCAM aptamers and conjugates thereof” (Deakin University, priority 2015, dated 2020)", "key": {"bEnd.3 cells": {"test_system": "bEnd.3 cells", "experiment": "Confocal microscopy internalisation into bEnd.3 cells", "assay_type": "cell-based, mouse", "conditions": "for Internalisation into TfR-expressing bEnd.3 cells: conjugate aptamers, 400 nM, two hour, confocal microscopy", "protocol": "Confocal microscopy was used as a means of visualising aptamer internalisation into the cells. Both aptamers and cells were prepared in the same manner as described above before they were mixed and allowed to incubate at 37° C. The aptamers were used at a concentration of 200 nM and were allowed to incubate for 60 minutes. The concentration for the conjugate (bifunctional) aptamers was 400 nM and these were incubated with the cells for 120 minutes. Ten minutes prior to end of incubation, 2 μL of Hoechst nuclear stain (10 mg/mL) was added to cells. Cells were then washed three times with 100 μL of PBS as described above and resuspended in 20 μL (8×10^5 cells/well) in an 8-chambered slide (Lab-Tek II, Nunc) for visualisation. Cells were incubated in blocking buffer for 60 mins followed by resuspension in binding buffer containing the aptamer and incubated for 60 mins at 37° C. […] The aptamer solution was removed and the cells were washed three times for 5 min each in PBS prior to visualisation using a FluoView FV10i laser scanning confocal microscope (Olympus). In order to assess the mechanism of cellular uptake, the internalisation of a phycoethyrin-labelled rat anti-mouse TfR monoclonal antibody (R17217; Abcam) was also visualised by confocal microscopy by co-incubating it with the aptamer at 1 μg/mL for 30 minutes. The uptake of these aptamers into cells is an important factor in determining the potential for use as therapeutics. The anti-transferrin receptor aptamers generated herein are designed to pass through the BBB via the active transcytosis pathway. […] This was done by visualising the internalisation of aptamers at a concentration of 200 nM into bEnd.3 and MOLT4 cells over the course of a one hour incubation with confocal microscopy. Aptamers are relatively new molecular tools in the field of diagnostics and therapeutics. […] The performance of the aptamer with a corresponding antibody was compared by examining uptake in bEnd.3 cells. This was done by incubating the highest affinity aptamer, TfR3, and the anti-TfR antibody with the bEnd.3 cells and observing them via confocal microscopy. The anti-TfR aptamers generated herein are intended to be used as drug delivery agents capable of crossing the blood-brain barrier (BBB). In an in vivo or clinical setting, these would need to pass from the bloodstream and into the BBB endothelial monolayer before exiting on the other side into the brain parenchyma. Given this, it is vital that these are not only capable of entered cells via active transport processes, but can also exocytose out again. Therefore, a time course internalisation experiment was conducted in order to establish whether or not the aptamers are being retained in the cells or are returning to the extracellular fluid. […]"}, "[1]": {"molecular_target": "T1, native EpCAM protein expressed on the cell surface (HEY cells) (Homo sapiens, UniProt P16422)", "T1 construct": "host or cells: HEY ovarian cancer cells", "T1 sequence (P16422 24-314)": "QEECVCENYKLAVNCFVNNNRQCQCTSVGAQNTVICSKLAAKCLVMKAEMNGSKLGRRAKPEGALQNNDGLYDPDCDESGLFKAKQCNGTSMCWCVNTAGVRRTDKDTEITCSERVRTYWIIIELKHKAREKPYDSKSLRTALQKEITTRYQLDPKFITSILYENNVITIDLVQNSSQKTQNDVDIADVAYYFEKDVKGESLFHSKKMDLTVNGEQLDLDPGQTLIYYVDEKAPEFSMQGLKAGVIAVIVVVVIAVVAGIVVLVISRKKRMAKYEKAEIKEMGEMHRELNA", "experiment": "Flow cytometry binding assay on HEY cells (EpCAM-positive)", "conditions": "for Kd: HEY (EpCAM-positive) cells, flow cytometry, n=3", "protocol": "In order to determine the binding affinity (equilibrium dissociation constant KD) of the aptamers. Binding assays were conducted to measure the binding to native EpCAM protein expressed on the cell surface. The aptamers were incubated with the cells at concentrations ranging from 0 nM to 400 nM. These were subsequently analysed by flow cytometry. Aptamers were thawed from storage (−20° C.) prior to use. These were then diluted via serial dilutions with phosphate buffered saline (PBS) in order to achieve the desired concentrations. PBS was supplemented with a MgCl2 concentration appropriate for the aptamer (1 mM for anti-TfR aptamers; 5 mM for conjugate aptamers). Aptamers were then folded into their 3D structures using a thermocycler (85° C. for 5 minutes, slow cooling to 22° C. over 10 minutes and 37° C. for 15 minutes).\nConcurrently, subcultured cells were incubated in blocking buffer (PBS with 10% FCS, 1 mg/mL BSA, 0.1 mg/mL tRNA) for 30 minutes. Following centrifugation, blocking buffer was removed and cells were resuspended in binding buffer (PBS with 10% FCS, 1 mg/mL BSA, 0.1 mg/mL tRNA). Cells (50 μL) were then incubated with the aptamers (50 μL) for 30 minutes at 37° C. at a range of concentrations (0 nM, 20 nM, 40 nM, 60 nM, 80 nM, 100 nM, 200 nM, 400 nM). Following this, cells were washed in 100 μL PBS three times before final resuspension for flow cytometry.\nAptamers were incubated with the chosen cell lines (bEnd.3 cells, mouse cells positive for TfR; HEY cells, human ovarian cancer cell line positive for EpCAM; and MOLT4 human cells negative for both TfR and EpCAM) at a range of concentrations. Aptamer-bound cells were analysed using a FACS Canto II flow cytometer (Becton Dickinson), counting 10,000 events for each sample, in order to determine the binding affinity of the aptamers. […] The value for the auto fluorescent 0 nM concentration was subtracted from the other figures to account for background fluorescence (Li N et al (2009) Journal of Proteome Research 8(5):2438-48). The resultant values were then used to determine the dissociation constant (KD) via the Graph Pad Prism 3 software. […]\nThe binding affinities of aptamers Bi1, Bi2 and Bi3 were determined semi-quantitatively via flow cytometry, using bEnd.3 cells to assess reactivity with TfR, HEY cells to determine EpCAM specificity and the MOLT4 cell line as a negative control. Three independent binding assays were performed for these aptamer against all three cell lines (bEnd.3, HEY and MOLT4). […]"}}, "note": "[invdT] = inverted (3'-3') thymidine; {TYE665} = TYE665 fluorescent dye", "data": [{"substance": "5′-GCGCGGTACCGCGCTAACGGAGGTTGCGTCCGT-3′ (GCGCGGTACCGCGCTAACGGAGGTTGCGTCCGN; listed as DNA, chemistry not given here) [Bi3]", "values": [{"measurement": "Internalisation into TfR-expressing bEnd.3 cells", "setting": "bEnd.3 cells", "result": "internalised"}, {"measurement": "Kd", "setting": "[1]", "result": "0.219 ± 0.0492", "unit": "µM"}]}, {"substance": "Bi1: aptamer conjugate based on TfR1 and scrambled EpCAM binding loop, negative control, SEQ ID NO:8 (GCGCGTGCACGCGCTAACGGATTCCTTTTCCGN; listed as DNA, further chemistry not given here)", "values": [{"measurement": "Internalisation into TfR-expressing bEnd.3 cells", "setting": "bEnd.3 cells", "result": "not"}, {"measurement": "Kd", "setting": "[1]", "result": "0.921 ± 0.27", "unit": "µM"}]}, {"substance": "TfR3: version of TfR1 with scrambled binding loop sequence, SEQ ID NO:6 (DNA GCGTGGTACCACGC; DNA, 5' {TYE665}, 3' [invdT], backbone not given here)", "values": [{"measurement": "Co-localisation with the anti-TfR antibody", "setting": "bEnd.3 cells; bEnd.3 cells, co-incubation with antibody R17217", "result": "observed"}, {"measurement": "Binding to HEY cell line (specific or non-specific)", "setting": "[1]; flow cytometry binding curve", "result": "clear non-specific binding"}]}, {"substance": "5′-GCGCGGGCCCGCGCTAACGGAGGTTGCGTCCGT-3′ (GCGCGGGCCCGCGCTAACGGAGGTTGCGTCCGN; DNA sequence of aptamer conjugate Bi2; (33)..(33) n is t or 3′ inverted deoxythymidine (dT))", "values": [{"measurement": "Internalisation into TfR-expressing bEnd.3 cells", "setting": "bEnd.3 cells", "result": "internalised"}, {"measurement": "Kd", "setting": "[1]", "result": "0.205 ± 0.0733", "unit": "µM"}]}]}
